Measured values as given in paper PMC12749748, “Chemically-induced degradation of the endoplasmic-reticulum stress sensor IRE1 by a VHL-recruiting chimera” (Nature Communications, 2025).

Legend:
[1] = biological target: T1, IRE1 (Homo sapiens, UniProt O75460); test: SelectScreen kinase profiling, IRE1; type: biochemical; conditions: 1 µM, 1 h
Method: The kinome selectivity of G6374 was assessed at 1 μM for 1 h versus a panel of 220 human kinases (SelectScreen Kinase Profiling Services, Thermo Fisher Scientific). The assays were conducted using either the Z’-LYTE technology to assess inhibition of enzyme activity ([ATP] = Km) or the TR-FRET-based LanthaScreen Eu Kinase Binding assay to assess competitive displacement of an ATP site binding probe. Assay results were normalized to positive and negative controls to determine percent inhibition. Image was created by KNIME Report Designer (KNIME.com AG, Zurich, Switzerland). Kinases for which ATP binding was inhibited by more than 90% were further examined by IB analysis for depletion by G6374 in AMO1 cells (4 h incubation).

[2] = biological target: T2, TAO2 (Homo sapiens, UniProt Q9UL54); test: Immunoblot of TAO2 depletion; type: cell-based; conditions: AMO1 and KMS27 cells, 4 h
T2 construct: endogenous in cells; host or cells: AMO1, KMS27
T2 sequence (Q9UL54 whole entry): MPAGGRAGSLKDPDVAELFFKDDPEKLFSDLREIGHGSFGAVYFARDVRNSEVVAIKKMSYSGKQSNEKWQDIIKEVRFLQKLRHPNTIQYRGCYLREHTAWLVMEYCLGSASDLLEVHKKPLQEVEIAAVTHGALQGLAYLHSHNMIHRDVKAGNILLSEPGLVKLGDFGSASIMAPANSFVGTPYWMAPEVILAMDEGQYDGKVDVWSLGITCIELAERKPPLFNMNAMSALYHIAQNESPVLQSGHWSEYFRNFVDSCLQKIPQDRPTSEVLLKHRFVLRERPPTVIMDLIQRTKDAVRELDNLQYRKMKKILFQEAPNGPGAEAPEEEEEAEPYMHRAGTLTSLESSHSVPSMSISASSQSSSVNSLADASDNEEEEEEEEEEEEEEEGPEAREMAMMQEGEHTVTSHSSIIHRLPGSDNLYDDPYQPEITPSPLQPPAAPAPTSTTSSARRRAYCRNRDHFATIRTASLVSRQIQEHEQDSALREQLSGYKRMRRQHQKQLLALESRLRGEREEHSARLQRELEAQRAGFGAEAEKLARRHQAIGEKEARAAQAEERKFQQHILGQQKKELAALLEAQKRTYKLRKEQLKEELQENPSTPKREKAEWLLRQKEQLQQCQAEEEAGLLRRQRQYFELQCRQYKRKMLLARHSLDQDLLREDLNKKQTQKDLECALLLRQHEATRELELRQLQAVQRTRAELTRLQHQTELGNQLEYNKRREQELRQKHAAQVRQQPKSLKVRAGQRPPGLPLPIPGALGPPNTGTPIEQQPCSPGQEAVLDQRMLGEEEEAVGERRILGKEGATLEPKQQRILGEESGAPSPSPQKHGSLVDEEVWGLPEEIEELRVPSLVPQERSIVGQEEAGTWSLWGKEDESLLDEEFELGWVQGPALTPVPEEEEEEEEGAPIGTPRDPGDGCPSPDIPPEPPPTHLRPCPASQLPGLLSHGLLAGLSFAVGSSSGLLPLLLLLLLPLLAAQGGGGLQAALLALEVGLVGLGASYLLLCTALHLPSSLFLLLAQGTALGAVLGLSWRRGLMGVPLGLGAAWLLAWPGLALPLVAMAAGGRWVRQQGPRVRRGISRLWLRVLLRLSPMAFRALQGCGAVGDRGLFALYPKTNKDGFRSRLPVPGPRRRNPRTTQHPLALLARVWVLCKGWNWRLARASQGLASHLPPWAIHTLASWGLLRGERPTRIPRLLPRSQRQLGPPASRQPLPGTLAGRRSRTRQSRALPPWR
Method: (§1) Cells were lysed in buffer containing 20 mM HEPES 7.2, 150 mM NaCl, and 1% Triton X-100, supplemented with fresh protease and phosphatase inhibitors (Invitrogen, #78440), cleared by centrifugation at 12,000 × g for 10 min, and analyzed by BCA protein assay (Thermo Fisher Scientific, #23227). Equal protein amounts were loaded, separated by SDS-PAGE, electrotransferred to nitrocellulose membranes using the iBLOT2 system (Invitrogen), and blocked in 5% nonfat milk solution for 60 min. Membranes were probed with primary antibodies at 1:1000 dilution in 5% milk at 4 °C overnight. Signal was detected using appropriate horseradish peroxidase (HRP)-conjugated secondary antibodies at 1:10,000 in 5% milk at room temperature for 1–2 h. Bands were visualized by the Azure 600 western blot imaging system (Azure Biosystems). For in vitro ubiquitination assays performed with Me-Ub, bands were visualized by the Odyssey CLx Imager (LI‑COR) after incubating the blots with the IRDye 800CW (LI-COR) secondary antibodies at 1:10,000 in Intercept Blocking Buffer (LI-COR) at room temperature for 1–2 h. […]
(§2) The kinome selectivity of G6374 was assessed at 1 μM for 1 h versus a panel of 220 human kinases (SelectScreen Kinase Profiling Services, Thermo Fisher Scientific). […]

[3] = biological target: T3, PKD1 (Homo sapiens, UniProt Q15139); test: Immunoblot of PKD1 degradation in KMS27 cells; type: cell-based; conditions: N=3
T3 construct: endogenous in cells; host or cells: KMS27
T3 sequence (Q15139 whole entry): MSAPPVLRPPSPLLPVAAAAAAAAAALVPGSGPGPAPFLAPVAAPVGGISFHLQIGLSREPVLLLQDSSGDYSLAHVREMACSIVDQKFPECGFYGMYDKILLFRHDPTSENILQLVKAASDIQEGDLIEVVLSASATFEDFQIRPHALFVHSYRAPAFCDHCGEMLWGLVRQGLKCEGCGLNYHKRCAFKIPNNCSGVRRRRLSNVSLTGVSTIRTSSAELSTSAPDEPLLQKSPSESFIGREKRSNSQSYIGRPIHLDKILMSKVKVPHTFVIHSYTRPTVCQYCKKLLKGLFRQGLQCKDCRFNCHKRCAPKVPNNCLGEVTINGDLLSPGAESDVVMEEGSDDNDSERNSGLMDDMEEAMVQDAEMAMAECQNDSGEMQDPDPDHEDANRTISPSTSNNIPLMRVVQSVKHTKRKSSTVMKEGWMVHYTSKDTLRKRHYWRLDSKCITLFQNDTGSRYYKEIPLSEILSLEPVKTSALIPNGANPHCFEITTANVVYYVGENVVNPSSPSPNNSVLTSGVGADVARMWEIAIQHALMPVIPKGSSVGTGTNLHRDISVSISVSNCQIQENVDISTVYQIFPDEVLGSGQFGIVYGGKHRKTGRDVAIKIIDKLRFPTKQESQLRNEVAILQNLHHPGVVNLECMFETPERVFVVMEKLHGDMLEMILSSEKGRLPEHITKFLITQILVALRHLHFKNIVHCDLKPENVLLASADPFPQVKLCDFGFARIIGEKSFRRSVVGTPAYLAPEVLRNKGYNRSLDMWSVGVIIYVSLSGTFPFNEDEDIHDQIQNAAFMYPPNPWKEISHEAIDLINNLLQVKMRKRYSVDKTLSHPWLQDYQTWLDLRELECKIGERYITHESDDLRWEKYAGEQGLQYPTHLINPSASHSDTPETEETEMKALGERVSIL
Method: as §1, §2

[4] = tested on: OPM2 cells; test: Incucyte cell confluency, OPM2 cells; type: cell-based; conditions: OPM2 shIRE1 cells, titration
Method: (§3) For non-adherent AMO1, KMS27, and OPM2 cells, cells were plated at 5000 cells/well in ultra-low attachment (ULA) 96-well plates (Costar, #7007) and centrifuged at 600 × g for 5 min for spheroid formation. For adherent U2OS and Colo201 cells, 2000 cells/well were seeded in a clear flat-bottom 96-well plate (Costar, #3595). Treatments were added at the time of cell seeding, and cells were cultured in complete RPMI media to a final volume of 200 µL/well. Cultures were maintained at 37 °C throughout the duration of the experiment. Cell confluency was tracked using the Incucyte live-cell imaging system (Sartorius S3). Picture frames were captured every 4 h with a 4× objective, and cell confluency (%) from the total well area as a function of time was calculated using the Incucyte software (version 2023 A Rev2).

[5] = tested on: AMO1 cells; test: Incucyte cell confluency, AMO1 cells; type: cell-based; conditions: AMO1 shIRE1 cells, titration
Method: as §3

[6] = tested on: Colo201 cells; test: Incucyte cell confluency, Colo201 cells; type: cell-based; conditions: Colo201 shIRE1 cells, titration
Method: as §3

[7] = tested on: IRE1; design: method as in earlier work; conditions: VHL:G6374:IRE1; cited from earlier work
[8] = biological target: T1, IRE1; test: Immunoblot of endogenous IRE1 depletion in KMS27 cells; type: cell-based; design: Immunoblot (IB) analysis of endogenous IRE1 depletion in AMO1 cells; endogenous in cells; host or cells: AMO1, KMS27, H929
Method: Cells were lysed in buffer containing 20 mM HEPES 7.2, 150 mM NaCl, and 1% Triton X-100, supplemented with fresh protease and phosphatase inhibitors (Invitrogen, #78440), cleared by centrifugation at 12,000 × g for 10 min, and analyzed by BCA protein assay (Thermo Fisher Scientific, #23227). Equal protein amounts were loaded, separated by SDS-PAGE, electrotransferred to nitrocellulose membranes using the iBLOT2 system (Invitrogen), and blocked in 5% nonfat milk solution for 60 min. Membranes were probed with primary antibodies at 1:1000 dilution in 5% milk at 4 °C overnight. Signal was detected using appropriate horseradish peroxidase (HRP)-conjugated secondary antibodies at 1:10,000 in 5% milk at room temperature for 1–2 h. Bands were visualized by the Azure 600 western blot imaging system (Azure Biosystems). For in vitro ubiquitination assays performed with Me-Ub, bands were visualized by the Odyssey CLx Imager (LI‑COR) after incubating the blots with the IRDye 800CW (LI-COR) secondary antibodies at 1:10,000 in Intercept Blocking Buffer (LI-COR) at room temperature for 1–2 h.

T1 sequence (O75460 19-977): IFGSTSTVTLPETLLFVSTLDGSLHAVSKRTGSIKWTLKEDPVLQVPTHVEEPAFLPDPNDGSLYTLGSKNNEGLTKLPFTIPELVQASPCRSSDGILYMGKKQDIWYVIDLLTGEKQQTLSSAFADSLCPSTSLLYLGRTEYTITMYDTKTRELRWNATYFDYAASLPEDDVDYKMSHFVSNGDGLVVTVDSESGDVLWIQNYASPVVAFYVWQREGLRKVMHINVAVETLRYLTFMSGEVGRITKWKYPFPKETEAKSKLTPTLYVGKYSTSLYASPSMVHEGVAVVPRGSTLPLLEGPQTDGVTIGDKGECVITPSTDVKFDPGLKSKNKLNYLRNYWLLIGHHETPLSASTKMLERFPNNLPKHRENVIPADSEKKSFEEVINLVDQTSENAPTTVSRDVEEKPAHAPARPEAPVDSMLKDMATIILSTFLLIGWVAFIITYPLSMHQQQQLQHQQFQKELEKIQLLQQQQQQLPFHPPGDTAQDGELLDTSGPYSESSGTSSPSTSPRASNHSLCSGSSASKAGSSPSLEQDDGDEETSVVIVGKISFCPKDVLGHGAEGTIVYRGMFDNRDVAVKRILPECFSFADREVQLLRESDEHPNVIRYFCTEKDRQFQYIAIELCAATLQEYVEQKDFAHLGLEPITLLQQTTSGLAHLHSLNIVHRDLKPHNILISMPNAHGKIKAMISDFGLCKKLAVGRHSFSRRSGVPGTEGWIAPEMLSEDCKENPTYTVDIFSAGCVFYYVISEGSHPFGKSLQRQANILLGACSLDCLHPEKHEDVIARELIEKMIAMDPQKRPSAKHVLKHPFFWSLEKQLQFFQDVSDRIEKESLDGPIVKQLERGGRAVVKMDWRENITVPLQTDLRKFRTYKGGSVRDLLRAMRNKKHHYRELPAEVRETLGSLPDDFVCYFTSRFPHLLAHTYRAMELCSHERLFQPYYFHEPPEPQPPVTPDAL

With `Cc1ncsc1-c1ccc(CNC(=O)[C@@H]2C[C@@H](O)CN2C(=O)[C@@H](NC(=O)CCCCN2CCN([C@H]3CC[C@H](Nc4ncc5ccc(=O)n(C(C)C)c5n4)CC3)CC2)C(C)(C)C)cc1` [G6374] the “inhibition of IRE1” value [1] was “complete inhibition”, the “depletion of TAO2” value [2] was “did not deplete TAO2” and the “degradation of PKD1” value [3] was “no”. The “growth inhibition (cell confluency)” value [4] was “concentration-dependent growth inhibition”, the “growth inhibition (cell confluency)” value [5] was “concentration-dependent growth inhibition” and the “proliferation rate (cell confluency)” value [6] was “did not affect the proliferation rate”. The Dmax [7] was 95%, the Dmax ([8]; KMS-27, immunoblot quantification) was 98% and the DC50 ([8]; immunoblot quantification) was 130 nM.
